These results are taken from patent US5674697A, “High sensitivity immunoassay for polychlorinated dibenzo-p-dioxins and polychlorinated dibenzofurans” (priority 1995, dated 1997).

Read-outs that look alike come from different tables or passages of the source.

The conditions of series [1]: cited from earlier work; for TEF* (toxic equivalency factor): Table II, congeners of the TEF Mixture native standard.
Series [2] deals with DD-3 antibody. Description: Direct competitive EIA with immobilized DD-3 monoclonal antibody and competitor-HRP conjugate. Type of series: binding, mouse. The following applies: for Assay sensitivity compared with the Hapten I enzyme conjugate based assay: analyte 2,3,7,8-TCDD; for Assay sensitivity compared with the Hapten I enzyme conjugate based assay / I50 (pg/well) / I85 (mdl, pg/well): DD-3 antibody; for I50 (pg/well) / I85 (mdl, pg/well): analyte 2,3,7,8-tetrachlorodibenzo-p-dioxin, listed competitor as HRP conjugate. The text has this:
Antibodies can be readily prepared by standard methods. […] M. Vanderlaan, et al., U.S. Pat. No. 4,798,807 (1989).
The competitors A-F (FIG. 2) and Hapten I (FIG. 1) were conjugated to the enzyme, amino modified Horseradish Peroxidase (HRP) (horseradish peroxidase commercially available from Sigma Chemical Co. (No. P-6782), St. Louis, Mo.; amino modified per R. Hsiao and H. Royer, Archives Biochem. Biophys., 198, 379-385 (1979) to give 6-24 free amines), using the carbodiimide mediated carboxyl activation procedure described in Example 7. Hapten and competitor load were determined by UV/Vis spectroscopy, also as described in Example 7.
The direct EIA (immobilized antibody and competitor enzyme conjugate) was performed as follows. Monoclonal antibody supernatant stored at -20° C. was diluted 1,000-40,000 fold with PBS which contained 0.1% Tween-20. This solution was dispensed (500 ul) into donkey anti-mouse second antibody coated tubes (DAM Tubes commercially available from Millipore Corp., Bedford, Mass.) and incubated at room temperature overnight. The antisera solution was decanted from the tubes and the tubes washed 3 times with distilled water. Non-specific sites in the tubes were blocked with 600 ul of BSA blocking buffer (EIA Blocking Buffer commercially available from Millipore Corp., Bedford, Mass.) and incubated for 2 hours at room temperature or overnight at 4° C. The blocking buffer was decanted and the tubes allowed to dry under ambient room conditions for at least 2 hours. The assay was performed by adding 500 ul of assay diluent (1% methanol (v/v) and 0.005% Tween-20 (w/v) in distilled water) to the required number of tubes followed by 10 ul of a methanol solution of the analyte (PCDD or PCDF). After a 5 minute incubation at room temperature, the solution was decanted and the tubes rinsed 3-4 times with tap water. The horseradish peroxidase competitor or Hapten I conjugates were diluted 1,000-60,000 fold from 2-5 mg/ml stock solutions in PBS with conjugate diluent (Enzyme Conjugate Diluent commercially available from Millipore Corp., Bedford, Mass.). The enzyme conjugate (200 ul) was added to the tubes followed by a 5 minute incubation at room temperature. The conjugate solution was decanted and the tubes rinsed 3-4 times with tap water. Enzyme substrate solution (500 ul, KPL No. 50-76-04 commercially available from KPL Laboratories, Gaithersburg, Md.) was added and the tubes were incubated at room temperature for 5-15 minutes. The enzyme reaction was stopped with the addition of 500 ul of 1N HCl. The OD of the solution was determined at 450 nm. The data was plotted using Log (Congener Concentration) versus B/Bo (B=Sample Absorbance, Bo=Sample Blank Absorbance).

[3] abbreviates: most toxic PCDD/PCDF congeners, reference 2,3,7,8-TCDD = 1.0, S. Safe 1990.
Setting [4] is: toxicity relative to 2,3,7,8-TCDD.
Where [5] appears, read: analyte 2,3,7,8-tetrachlorodibenzofuran, DD-3 and Competitor F.

For the molecule `Clc1cc2c(cc1Cl)Oc1cc(Cl)c(Cl)cc1O2` [2,3,7,8-TCDD, 2,3,7,8-tetrachlorodibenzo-p-dioxin], the “TEF* (toxic equivalency factor)” value in series [1] is 1. For the same molecule, the TEF in series [1] (setting [3]) and in series [1] (setting [4]) was 1.0 in each case.

For `O=C(O)CCCOc1ccc(Cl)c(Cl)c1` [Competitor D], in series [2], the “Assay sensitivity compared with the Hapten I enzyme conjugate based assay” value was “significantly more sensitive”; the “I50 (pg/well)” value stood at 380 pg/well; the “I85 (mdl, pg/well)” value came to 15 pg/well.

With `Clc1cc(Cl)c2c(c1Cl)Oc1c(Cl)c(Cl)c(Cl)c(Cl)c1O2` [1,2,3,4,6,7,9-HpCDD], the “TEF* (toxic equivalency factor)” value in series [1] is 0.01. For the same molecule, the TEF in series [1] (setting [3]) is 0.01.

For the molecule `O=C(O)CCc1ccc(Cl)c(Cl)c1` [Competitor B], in series [2], the “Assay sensitivity compared with the Hapten I enzyme conjugate based assay” value is on record as “significantly more sensitive”; the “I50 (pg/well)” value turned out to be 350 pg/well; the “I85 (mdl, pg/well)” value is on record as 20 pg/well.

Take `Clc1c(Cl)c(Cl)c2c(oc3c(Cl)c(Cl)c(Cl)c(Cl)c32)c1Cl` [OCDF]: the “TEF* (toxic equivalency factor)” value in series [1] is reported as 0.001. Also, in series [1] (setting [3]), the TEF is given as 0.001.

Take `O=C(O)CCCCc1cc(Cl)ccc1Cl` [Competitor A, 5-(2,5-dichlorophenyl)pentanoic acid]: in series [2], the “Assay sensitivity compared with the Hapten I enzyme conjugate based assay” value was “significantly more sensitive”; the “I50 (pg/well)” value is on record as 1,000 pg/well; the “I85 (mdl, pg/well)” value is 25 pg/well.

In the case of `Clc1cc2c(c(Cl)c1Cl)Oc1cc(Cl)c(Cl)c(Cl)c1O2` [1,2,3,6,7,8-HxCDD], the “TEF* (toxic equivalency factor)” value in series [1] is 0.1. Moreover, the TEF in series [1] (setting [3]) is 0.1.

On to `O=C(O)CCCOc1ccc(Cl)cc1Cl` [Competitor C], for which, in series [2], the “Assay sensitivity compared with the Hapten I enzyme conjugate based assay” value is recorded as “significantly more sensitive”; the “I50 (pg/well)” value was 230 pg/well; the “I85 (mdl, pg/well)” value is listed as 13 pg/well.

Regarding `Clc1cc2c(cc1Cl)Oc1c(Cl)c(Cl)c(Cl)c(Cl)c1O2` [1,2,3,4,7,8-HxCDD], in series [1], the “TEF* (toxic equivalency factor)” value is 0.1. Besides, in series [1] (setting [3]), the TEF is listed as 0.1.

With `Clc1cc2c(c(Cl)c1Cl)Oc1c(cc(Cl)c(Cl)c1Cl)O2` [1,2,3,7,8,9-HxCDD], in series [1], the “TEF* (toxic equivalency factor)” value is on record as 0.1. Also, the TEF in series [1] (setting [3]) is recorded as 0.1.

Turning to `Clc1c(Cl)c(Cl)c2c(c1Cl)Oc1c(Cl)c(Cl)c(Cl)c(Cl)c1O2` [OCDD], the “TEF* (toxic equivalency factor)” value in series [1] is 0.001. The TEF in series [1] (setting [3]) is recorded as 0.001.

On to `O=C(O)CCCC(=O)c1ccc(Cl)c(Cl)c1` [Competitor F], for which, in series [2], the “Assay sensitivity compared with the Hapten I enzyme conjugate based assay” value was “significantly more sensitive”; the “I50 (pg/well)” value is reported as 230 pg/well; the “I85 (mdl, pg/well)” value is on record as 13 pg/well.

Turning to `Clc1cc2c(oc3cc(Cl)c(Cl)c(Cl)c32)c(Cl)c1Cl` [1,2,3,6,7,8-HxCDF], in series [1], the “TEF* (toxic equivalency factor)” value is 0.1. In series [1] (setting [3]), the TEF is reported as 0.1.

On to `Clc1cc2oc3c(Cl)c(Cl)c(Cl)c(Cl)c3c2c(Cl)c1Cl` [1,2,3,4,7,8,9-HpCDF], for which the “TEF* (toxic equivalency factor)” value in series [1] is given as 0.01. Moreover, in series [1] (setting [3]), the TEF is 0.01.

With `Clc1cc2c(oc3c(Cl)c(Cl)c(Cl)cc32)c(Cl)c1Cl` [2,3,4,6,7,8-HxCDF], the “TEF* (toxic equivalency factor)” value in series [1] is on record as 0.1. For the same molecule, in series [1] (setting [3]), the TEF is 0.1.

As for `Clc1cc2oc3cc(Cl)c(Cl)cc3c2cc1Cl` [2,3,7,8-TCDF, 2,3,7,8-tetrachlorodibenzofuran], the “Factor more sensitive than DD-3 and Hapten I assay system” value in series [2] (analyte 2,3,7,8-tetrachlorodibenzofuran, Competitor F versus literature Hapten I assay (Stanker 1987)) is recorded as roughly 10. Also, in series [2] (setting [5]), the I50 is recorded as 800 pg/well and the “I85 (mdl)” value stood at 80 pg/well. In series [1], the “TEF* (toxic equivalency factor)” value was 0.1. Also, the TEF in series [1] (setting [3]) is 0.1.

Regarding `Clc1cc2c(cc1Cl)Oc1c(cc(Cl)c(Cl)c1Cl)O2` [1,2,3,7,8-PeCDD], the “TEF* (toxic equivalency factor)” value in series [1] is listed as 0.5. Also, the TEF in series [1] (setting [3]) is listed as 0.5.

Take `Clc1cc2c(c(Cl)c1Cl)Oc1c(Cl)c(Cl)c(Cl)c(Cl)c1O2` [1,2,3,4,6,7,8-heptachlorodibenzo-p-dioxin]: the TEF in series [1] (setting [3]) and in series [1] (setting [4]) was 0.01 in each case.

Regarding `O=C(O)CCCSc1cc(Cl)ccc1Cl` [Competitor E], in series [2], the “Assay sensitivity compared with the Hapten I enzyme conjugate based assay” value is “significantly more sensitive”; the “I50 (pg/well)” value was determined as 380 pg/well; the “I85 (mdl, pg/well)” value worked out at 15 pg/well.

As to `Clc1cc2c(oc3c(Cl)c(Cl)c(Cl)c(Cl)c32)c(Cl)c1Cl` [1,2,3,4,6,7,8-HpCDF], the “TEF* (toxic equivalency factor)” value in series [1] is given as 0.01. In series [1] (setting [3]), the TEF is given as 0.01.

Turning to `Clc1cc2oc3cc(Cl)c(Cl)c(Cl)c3c2cc1Cl` [1,2,3,7,8-PeCDF], the “TEF* (toxic equivalency factor)” value in series [1] was 0.05. In series [1] (setting [3]), the TEF is on record as 0.05.

Consider `Clc1cc2oc3cc(Cl)c(Cl)c(Cl)c3c2c(Cl)c1Cl` [1,2,3,7,8,9-HxCDF], for which, in series [1], the “TEF* (toxic equivalency factor)” value is reported as 0.1. Further, the TEF in series [1] (setting [3]) is 0.1.

For `Clc1cc2oc3c(Cl)c(Cl)c(Cl)c(Cl)c3c2cc1Cl` [1,2,3,4,7,8-HxCDF], the “TEF* (toxic equivalency factor)” value in series [1] was 0.1. In series [1] (setting [3]), the TEF was 0.1.
